Results from patent publication US20090280060A1, “PHOTOCHROMIC PROBES” (priority 2004, published 2009).

Key:
BSA = BSA (Bos taurus, UniProt P02769); assay: Absorption spectra of MC probes attached to a cysteine residue on BSA; assay type: physicochemical; details: MC state, probe attached to a cysteine residue on BSA
Description: BSA: BSA conjugates of the spirobenzopyran reagents were prepared in a similar fashion to that described for G-actin yielding similar labeling ratios (FIG. 5C). The absorption spectrum of the five MC probes attached to a cysteine residue on BSA are centered at 544.5 nm (18,365 cm^−1) for compound 6,534 nm ([…]) for compound 12, 520 nm (19,231 cm^−1) for compounds 9; 503.5 nm (19,861 cm^−1) for compound 13. The difference in the energy of the absorption bands for these conjugates of 1496 cm^−1 is a little less than that found between the same probes on G-actin but again is significant in terms of the free energy of complex formation between BSA and its ligands. These confirm the conclusion that the protein matrix is made up of a complex dipolar landscape.

G-actin [1] = target: T1, G-actin (Oryctolagus cuniculus, UniProt P68135); assay: Absorption spectra of MC state of probes attached to cysteine-374 on G-actin; assay type: physicochemical, Rabbit; set-up: Rabbit muscle G-actin was purified according to Marriott; from tissue; host or cells: rabbit muscle; details: probe attached to cysteine-374 of G-actin
Description: (§1) MATERIALS AND METHODS. Instrumentation. ^1H NMR spectra were measured on a Brucker Ac 300 MHz; mass spectra were carried out on a Micromass AutoSpec for EI, a Micromass LCT for ESI, or a Bruker REFLEX II for MALDI. Absorption spectra were recorded on a Hewlett-Packard 82152 diode array spectrophotometer or a Shimadzu 1601 PC instrument. Fluorescence spectroscopy was performed on an SLM-AB2 instrument (Thermoelectron, Madison, Wis.) or an ISS PC1 (Champaign, Ill.). Light-directed switching of the probes described in this work was achieved by irradiating the sample (120-1000 μL) with the 365 nm or 546 nm lines of a 100 W Hg-arc lamp (Zeiss).
Rabbit muscle G-actin was purified according to Marriott^14 in G-buffer (2 mM Tris, 0.2 mM CaCl2, and 0.2 mM ATP at pH 8.0). The concentration of G-actin was determined by absorption spectroscopy using an extinction coefficient of 3400 M^−1 cm^−1 at 290 nm^14. 1 ml of a 20 μM solution of G-actin was treated with 20 μL of a 10 mM DMF stock solution of each thiol reactive, spirobenzopyran probe. The reaction mixture was left in the dark for 2 hours at room temperature. The protein was centrifuged for 10 min at 2000 g at 4° and applied to a Bio-Rad PD-10 column equilibrated in G-buffer containing 1 mM DTT. […]
G-Actin: The reaction between a ten-fold molar excess of thiol reactive, spirobenzopyran reagents and 20 μM G-actin at 20° is complete within 2 hours. The concentration of spirobenzopyran in each conjugate is determined from the value of the absorption maximum of the SP form of G-actin conjugates using an extinction coefficient of 35,000 M^−1cm^−1 at 350 nm^15 (FIG. 5A) The absorption spectra of the MC and SP states are not affected by the labeling ratio (spirobenzopyran/G-actin, which varies from 0.6 to 0.8 within the different conjugates. Cysteine-374 is located at an important site on G-actin and has been implicated in several important interactions of actin that include protomer-contacts within F-actin^23, the binding of the actin filament capping proteins Gelsolin and CapG^24 and the motor protein, myosin II^25. […]

G-actin [2] = target: T1, G-actin; assay: Fluorescence excitation and emission spectra of G-actin conjugates; assay type: physicochemical, Rabbit; set-up: Rabbit muscle G-actin was purified according to Marriott; from tissue; host or cells: rabbit muscle; details: for MC emission maximum of G-actin conjugate: excitation wavelength of 370 nm
Source text: FIG. 3. (A), Technical fluorescence excitation spectrum of the G-actin conjugate of compound 12, showing the S0-S2 (centered at 370 nm) and S0-S1 (centered at 558 nm) excitation bands of MC. The emission was monitored at an emission wavelength of 650 nm. (B), Normalized, technical emission spectra of G-actin conjugates of compounds: a), 3 (624 nm); b), 12 (622 nm); c), 6 (628 nm); d), 13 (630 nm). The emission from the MC state in each conjugate was generated using an excitation wavelength of […].
as §1
Further information on MC-solvent interactions can be derived from studying the fluorescence properties of MC. From a practical standpoint, fluorescence from ^1MC* is best studied by exciting the spirobenzopyran with mid-ultraviolet light (S0-S2 transition)—this condition maintains a uniform population of MC excited state molecules (see Jablonski diagram, FIG. 4A). Contrary to the ground state studies, the inventors find that the average energy of the MC fluorescence is insensitive to the solvent (water, 2-propanol, 1,2-propanediol and acetonitrile; data not shown) and to the location of MC probe on G-actin (FIG. 3B).

[3] = tested on: fertilized xenopus oocytes; assay: Cell division in microinjected fertilized xenopus oocytes; assay type: in vivo; details: microinjection at the 4 cell stage
Description: Light directed activation of constitutively active caged cofilin. Caged cofilin (constitutively active S3A) was prepared independently of Ghosh et al (2004) using our standard NVOC-Cl approach (Marriott, 1994) that is described above for caged CapG. […] Oocytes were microinjected with caged fluorescein dextran (Molecular Probes) and concentrated caged cofilin (5 mg/ml) at the 4 cell stage—we estimate that the intracellular concentration of cofilin is the two injected cells is between 30˜50 μM. Irradiation of all four cells in the embryo with 365 nm light for 2 seconds generated fluorescein and green fluorescence, and by implication cofilin, from their caged precursors in the two injected cells. […] We conclude from these studies that the increased concentration of cofilin generated by uncaging inhibits actin filament dynamics and cytokinesis (Bamburg, 1999).

F-actin = target: T2, F-actin (Oryctolagus cuniculus, UniProt P68135); assay: Prodan-F-actin depolymerization kinetics after dilution; assay type: biochemical; details: Prodan actin emission ratio 465/502 nm, dilution below the critical concentration
T2 construct: Rabbit muscle G-actin is purified according to Marriott (1994); from tissue; host or cells: rabbit muscle

[4] = G-actin conjugate, emission monitored at 650 nm

Sequence of BSA (P02769 25-607): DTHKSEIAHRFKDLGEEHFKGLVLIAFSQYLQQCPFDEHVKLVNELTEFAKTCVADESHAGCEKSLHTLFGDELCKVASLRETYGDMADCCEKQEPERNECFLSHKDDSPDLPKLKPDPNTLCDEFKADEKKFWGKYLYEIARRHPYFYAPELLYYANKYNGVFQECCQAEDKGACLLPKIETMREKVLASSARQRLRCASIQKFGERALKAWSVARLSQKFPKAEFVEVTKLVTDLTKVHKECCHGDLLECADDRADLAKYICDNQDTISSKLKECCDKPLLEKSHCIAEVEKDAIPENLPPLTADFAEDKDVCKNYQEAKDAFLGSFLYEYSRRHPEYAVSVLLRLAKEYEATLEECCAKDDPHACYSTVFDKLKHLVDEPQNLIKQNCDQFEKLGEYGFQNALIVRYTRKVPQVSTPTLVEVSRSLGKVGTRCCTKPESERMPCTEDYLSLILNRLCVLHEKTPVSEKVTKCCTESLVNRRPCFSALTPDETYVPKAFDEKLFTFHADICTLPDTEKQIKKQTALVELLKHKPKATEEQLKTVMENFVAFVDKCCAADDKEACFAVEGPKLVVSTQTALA

Molecule | MC absorption spectrum centre on BSA (BSA) | MC absorption maximum on G-actin (G-actin [1]) | MC emission maximum of G-actin conjugate (G-actin [2]) | effect on cell division / cytokinesis [3] | effect on rate of F-actin depolymerization (F-actin) | also measured
wild type cofilin: wild type cofilin, inactivated by phosphorylation at Ser-3 | – | – | – | no effect on cell division | – | –
Constitutively active cofilin: constitutively active S3A cofilin (protein, UniProt P23528 2-166, looked up, variant S3A) Cofilin-1: AAGVAVSDGVIKVFNDMKVRKSSTPEEVKKRKKAVLFCLSEDKKNIILEEGKEILVGDVGQTVDDPYATFVKMLPDKDCRYALYDATYETKESKKEDLVFIFWAPESAPLKSKMIYASSKDAIKKKLTGIKHELQANCYEEVKDRCTLAEKLGGSAVISLEGKPL | – | – | – | inhibited cytokinesis | increases the rate of F-actin depolymerization | –
caged cofilin: constitutively active S3A cofilin caged with 3-5 NVOC groups by the NVOC-Cl approach (protein, UniProt P23528 2-166, looked up, variant S3A, caged with 3-5 NVOC groups) Cofilin-1: AAGVAVSDGVIKVFNDMKVRKSSTPEEVKKRKKAVLFCLSEDKKNIILEEGKEILVGDVGQTVDDPYATFVKMLPDKDCRYALYDATYETKESKKEDLVFIFWAPESAPLKSKMIYASSKDAIKKKLTGIKHELQANCYEEVKDRCTLAEKLGGSAVISLEGKPL | – | – | – | failed to undergo further divisions | did not accelerate the rate of F-actin depolymerization | effect on cell division / cytokinesis ([3]; listed as caged constitutively active cofilin): inhibits cytokinesis
Uncaged cofilin: caged cofilin after light-directed uncaging (protein, UniProt P23528 2-166, looked up, variant S3A, uncaged after photolysis, caged cofilin after light-directed uncaging) Cofilin-1: AAGVAVSDGVIKVFNDMKVRKSSTPEEVKKRKKAVLFCLSEDKKNIILEEGKEILVGDVGQTVDDPYATFVKMLPDKDCRYALYDATYETKESKKEDLVFIFWAPESAPLKSKMIYASSKDAIKKKLTGIKHELQANCYEEVKDRCTLAEKLGGSAVISLEGKPL | – | – | – | – | restores a substantial fraction of the cofilin activity | –

Second part, led by results:

MC absorption spectrum centre on BSA (BSA) | MC absorption maximum on G-actin (G-actin [1]) | MC emission maximum of G-actin conjugate (G-actin [2]) | Molecule | effect on cell division / cytokinesis [3] | effect on rate of F-actin depolymerization (F-actin) | also measured
520 nm | 500 nm | – | 4′-(Bromomethyl)spirobenzopyran [compound 9] | – | – | –
503.5 nm | 551.5 nm | 630 nm | 6′-(Bromomethyl)spirobenzopyran [compound 13] | – | – | –
– | 551.5 nm | 622 nm | 6′-(Maleimidomethyl)spirobenzopyran [compound 12] | – | – | S0-S1 excitation band of MC, centre (G-actin [2]; [4]): 558 nm; S0-S2 excitation band of MC, centre (G-actin [2]; [4]): 370 nm
– | – | 624 nm | 8-(Iodomethyl)spirobenzopyran [compound 3] | – | – | –
544.5 nm | – | 628 nm | CC1(C)c2ccccc2N(CCN2C(=O)C=CC2=O)C12C=Cc1cc([N+](=O)[O-])ccc1O2 (stereo not shown) [compound 6, 1′-(Maleimidoethyl)spirobenzopyran] | – | – | –
